Data: patent US20110280815A1, “COMPOSITION FOR INHIBITING MELANIN PRODUCTION AND APPLICATION THEREOF” (priority 2010, published 2011)
Where two headings read alike, the source gives them in different places.

What was measured:
[1] = system: human epidermal melanocyte (HEM); test: Inhibiting melanin in cell line model, human epidermal melanocyte (HEM); assay type: cell-based; details: 200 μg/mL in medium, 72 hours, compared with blank control group (FIG. 5)
Procedure: (§1) In this example, the tyrosinase inhibitor of the present invention was used to inhibit melanin production in melanocytes. The cell lines used in this example are mouse melanoma (B16-F1; ATCC CRL-6323) and human epidermal melanocyte (HEM). After 72 hours, cells and cell culture medium were collected separately. Then, the collected cells were destroyed by ultrasonic for melanin examination.

tyrosinase = test: Inhibiting tyrosinase (L-Dopa oxidation, dopachrome absorption at 492 nm); assay type: biochemical; details: series diluted sample, 0.1 U tyrosinase, 1 mM L-Dopa, 37° C., compared with blank control group (FIG. 1)
Procedure: In this example, 90 μL of 0.1 U tyrosinase solution was added in to the wells of a 96-well plate. Then, 50 μL of a series diluted sample was added into the wells as an experimental group or as a blank control group, wherein said sample is MOPS, SB-12(N-Dodecyl-N,N-dimethyl-3-ammonio-1-propanesulfonate), ACES or Tris-HCl, and 0.1 M phosphate buffer and a substance lysis solution were used as blank tests for the experimental group and the blank control group, respectively. Each sample in the experiment was at least triplicated. The test plate was placed at 37° C., 400 rpm for 5 min to mix the contents thereof homogeneously. Then, the test plate was placed into a machine for an absorption examination (492 nm). An average of two detected data was obtained as a background value. The test plate was then taken out, and 60 μL of 1 mM L-Dopa solution was added into each well. […] At this time, an average of two detected data was obtained as a test value.
In example 1, by using the tyrosinase inhibitor of the present invention, tyrosinase was inhibited to prevent melanin production. […] Accordingly, in this example, the absorption of the reaction at 492 nm was detected for examining the production of dopaquinone.
The data in the figure was calculated by the following formula: […]

B16-F1 cells = test: Inhibiting melanin in cell line model, mouse melanoma B16-F1; assay type: cell-based; details: for inhibition of melanin production of mouse melanoma (microscopic image): 200 μg/ml, cultured 72 hours (FIG. 2); for inhibition at 200 µg/mL: Mus musculus, B16-F1, 200 μg/mL in medium
Procedure: as §1

[2] = 72 hours (FIG. 3), read-out: ability of inhibiting melanin production of B16-F1 cells
[3] = 72 hours, cell culture medium (FIG. 4), read-out: ability of inhibiting melanin secretion of B16-F1 cells

SMILES | inhibition rate of melanin production of human epidermal melanocyte [1] | inhibition of tyrosinase activity (tyrosinase) | inhibition of melanin production of mouse melanoma (microscopic image) (B16-F1 cells) | inhibition at 200 µg/mL (B16-F1 cells; [2]) | inhibition at 200 µg/mL (B16-F1 cells; [3])
O=S(=O)(O)CCCN1CCOCC1 [MOPS, 3-(N-Morpholino) propanesulfonic acid] | inhibition rate was increased | significantly inhibit the activity of tyrosinase | significantly inhibit | 41.7% | 42.3%
NC(=O)CNCCS(=O)(=O)O [ACES, N-(2-Acetamido)-2-aminoethanesulfonic acid] | inhibition rate was increased | significantly inhibit the activity of tyrosinase | significantly inhibit | 35% | 38.9%
